From US10261017B2, “Methods for detecting and categorizing skin sensitizers” (University of Mississippi, priority 2014, dated 2019)
Marks after values point to notes of the source that are not given here.

Tested on: not listed separately
Experiment: NMR method: depletion of electrophile signal on reaction with DCYA
Conditions: not given
Description: The described example can be applied to pure chemicals and mixtures. The method includes the acquisition of at least one NMR spectrum, mixing an electrophile and a nucleophile to acquire an array of control spectra and an addition of catalyst to record an array of reaction spectra. It also includes the quantification of at least one signal and the comparison of the signal with a control and the classification of the reaction based on the depletion of potential sensitizer based on the quantified residual signal.
2,5-Dimethylfuran was used as internal standard. When necessary, characterization of the product(s) formed during the reaction(s) was performed by homonuclear ^1H connectivities using 2D-COSY experiments. […] Two- and three bond ^1H-^13C connectivities were determined by gradient-HMBC experiments in which the evolution period for long-range ^1H-^13C coupling constants was optimized for a ^2,3JC,H of 8 Hz. Through-space ^1H connectivities were determined using a NOESY experiment with a mixing time of 0.450 s. […] Toronto, Canada].
In a 3 mm NMR tube, 1 volume of DCYA (100) mM in CDCl3) was mixed with one volume of sensitizer (100 mM in CDCl3) to give a final concentration of 50 mM for both DCYA and the sensitizer. Control ^1H NMR spectra (reference spectra) were recorded at regular intervals of for a minimum of 5 min. […] All spectra were recorded at constant temperature. All experiments were conducted using the manufacturer's standard presaturation pulse programs and experimental conditions were chosen as explained in NMR spectroscopy section. The progress of the reaction was followed by the diminished peak areas of the resonances for the signal of interest. The spectra were phased, referenced, and integrated using NMR data elaboration software. The structural characterizations of the resulting adducts were confirmed by conducting additional 2D-NMR experiments when necessary.
Covalent reaction of DCYA with carvone is dependent on the activation of the nucleophilic group (ex. sulfhydryl group to the reactive thio-anion) under basic conditions. This reaction is strongly dependent on the nature of the nucleophile and may be modulated by careful choice of the model nucleophile and the reaction conditions.
The control spectra are used as reference spectra (FIG. 3A). All the spectra were subjected to automatic phase and baseline correction using a Bernstein polynomial fit (order 3). After these two steps, all the spectra were integrated over the areas of interest. […] Both vinylic and adduct peak areas were normalized relative to the internal standard signal peaks. […] The concentrations of both electrophile and adduct were then plotted as percentage against time (in minutes). (FIG. 5).

Row | SMILES | NMR assay reactivity / classification in words | NMR Classification
1 | O=c1ccc2ccccc2o1 [Coumarin] | almost unreactive | 
2 | C=C(C)C1CC=C(C=O)CC1 (stereo not drawn) [Perillaldehyde] | moderate/low electrophilic behavior | 
3 | OCCc1ccc(O)c(O)c1 [3-Hydroxytyrosol] | almost unreactive | Non^$
4 | O=C1C=CC(=O)C=C1 [p-Benzoquinone] | high reactivity | 
5 | O=CC=Cc1ccccc1 [Cinnamaldehyde] | moderate sensitizer | Moderate

Same assay, conditions: 30 min, 50 mM

Row | SMILES | Conversion at t30 (depletion of electrophile signal)
6 | O=c1ccc2ccccc2o1 [Coumarin] | 0%

Same assay, conditions: 90 min, 50 mM

Row | SMILES | NMR Method conversion
7 | O=c1ccc2ccccc2o1 [Coumarin] | 0%

Same assay, conditions: NMR, less than five minutes

Row | SMILES | Depletion in less than five minutes
8 | O=C1C=CC(=O)C=C1 [p-Benzoquinone] | > 95%

Same assay, conditions: at 30 min; 1 equiv. DCYA

Row | SMILES | Conversion at t30 (depletion of electrophile signal)
9 | C=C(C)C1CC=C(C=O)CC1 (stereo not drawn) [Perillaldehyde] | 28%
10 | OCCc1ccc(O)c(O)c1 [3-Hydroxytyrosol] | 6%
11 | O=C1C=CC(=O)C=C1 [p-Benzoquinone] | 95%
12 | O=CC=Cc1ccccc1 [Cinnamaldehyde] | 50%

Same assay, conditions: based on depletion of electrophile signal at 30 min

Row | SMILES | NMR Classification
13 | O=c1ccc2ccccc2o1 [Coumarin] | Non
14 | C=C(C)C1CC=C(C=O)CC1 (stereo not drawn) [Perillaldehyde] | Weak-moderate
15 | O=C1C=CC(=O)C=C1 [p-Benzoquinone] | Strong

Same assay, conditions: conversion of test chemical at 90 min; 1 equiv. DCYA, 0.1 equiv. DBN, CDCl3

Row | SMILES | NMR Method conversion
16 | C=C(C)C1CC=C(C=O)CC1 (stereo not drawn) [Perillaldehyde] | 28%
17 | OCCc1ccc(O)c(O)c1 [3-Hydroxytyrosol] | 6%
18 | O=C1C=CC(=O)C=C1 [p-Benzoquinone] | 95^# %
19 | O=CC=Cc1ccccc1 [Cinnamaldehyde] | 50%

Tested on: not given
Experiment: not given
Conditions: 2.1 mM, pH 10

Row | SMILES | DCYA 100-RI | DCYA binary classification: FN | DCYA binary classification: FP | DCYA binary classification: TN | DCYA binary classification: TP
20 | OCCc1ccc(O)c(O)c1 [3-Hydroxytyrosol] | 97.2 |  |  |  | 
21 | O=CC=Cc1ccccc1 [Cinnamaldehyde] | 85.1 | 0 | 0 | 0 | 1

Tested on: thiol peptide
Experiment: not given
Conditions: not given

Row | SMILES | Cys-DPRA binary classification: FN | Cys-DPRA binary classification: FP | Cys-DPRA binary classification: TN | Cys-DPRA binary classification: TP
22 | O=c1ccc2ccccc2o1 [Coumarin] | 0 |  |  | 
23 | O=CC=Cc1ccccc1 [Cinnamaldehyde] | 0 | 0 | 0 | 1

Tested on: not given
Experiment: not given
Conditions: effective concentration, published literature (Table 1); cited from earlier work

Row | SMILES | LLNA (EC3)
24 | C=C(C)C1CC=C(C=O)CC1 (stereo not drawn) [Perillaldehyde] | 8.1%
25 | O=C1C=CC(=O)C=C1 [p-Benzoquinone] | 0.01%

Same assay, conditions: mouse, in vivo; cited from earlier work

Row | SMILES | LLNA (EC3) | LLNA Classification | LLNA EC3
26 | OCCc1ccc(O)c(O)c1 [3-Hydroxytyrosol] | 0.6% | Strong | 0.6%
27 | O=CC=Cc1ccccc1 [Cinnamaldehyde] | 3% | Moderate | 3%

Same assay, conditions: published literature; cited from earlier work

Row | SMILES | LLNA Classification
28 | C=C(C)C1CC=C(C=O)CC1 (stereo not drawn) [Perillaldehyde] | Moderate
29 | O=C1C=CC(=O)C=C1 [p-Benzoquinone] | Extreme

Same assay, conditions: reported results (Table 7); cited from earlier work

Row | SMILES | LLNA EC3
30 | C=C(C)C1CC=C(C=O)CC1 (stereo not drawn) [Perillaldehyde] | 8.1%
31 | O=C1C=CC(=O)C=C1 [p-Benzoquinone] | 0.01%

Tested on: thiol peptide
Experiment: not given
Conditions: adopted from the literature; cited from earlier work

Row | SMILES | Cys-DPRA, percentage of thiol peptide depleted
32 | C=C(C)C1CC=C(C=O)CC1 (stereo not drawn) [Perillaldehyde] | 31.9%
33 | O=C1C=CC(=O)C=C1 [p-Benzoquinone] | 99.0%

Same assay, conditions: cited from earlier work

Row | SMILES | Cys-DPRA reactivity in words | Cys-DPRA % Pept. remain. | Cys-DPRA, percentage of thiol peptide depleted
34 | OCCc1ccc(O)c(O)c1 [3-Hydroxytyrosol] | non-reactive |  | 
35 | O=CC=Cc1ccccc1 [Cinnamaldehyde] |  | 29.4% | 70.6%

Same assay, conditions: reported results from the literature; cited from earlier work

Row | SMILES | Cys-DPRA % Pept. remain.
36 | C=C(C)C1CC=C(C=O)CC1 (stereo not drawn) [Perillaldehyde] | 68.1%
37 | O=C1C=CC(=O)C=C1 [p-Benzoquinone] | 1%

Tested on: ARE-dependent gene activity in a recombinant cell line
Experiment: not given
Conditions: cited from earlier work

Row | SMILES | KeratinoSens ™ EC3
38 | O=CC=Cc1ccccc1 [Cinnamaldehyde] | 63.94 µM

Same assay, conditions: published literature (Table 1); cited from earlier work

Row | SMILES | KeratinoSens ™ EC3
39 | C=C(C)C1CC=C(C=O)CC1 (stereo not drawn) [Perillaldehyde] | 61.85 µM
40 | O=C1C=CC(=O)C=C1 [p-Benzoquinone] | 32.77 µM

Same assay, conditions: reported results (Table 7); cited from earlier work

Row | SMILES | KeratinoSens ™ EC3
41 | C=C(C)C1CC=C(C=O)CC1 (stereo not drawn) [Perillaldehyde] | 61.85 µM
42 | O=C1C=CC(=O)C=C1 [p-Benzoquinone] | 32.77 µM

Tested on: thiol peptide
Experiment: Cys-DPRA (Direct Peptide Reactivity Assay), literature data
Conditions: false negative

Row | SMILES | Cys-DPRA binary classification: FN
43 | C=C(C)C1CC=C(C=O)CC1 (stereo not drawn) [Perillaldehyde] | 0
44 | O=C1C=CC(=O)C=C1 [p-Benzoquinone] | 0

Same assay, conditions: false positive

Row | SMILES | Cys-DPRA binary classification: FP
45 | O=c1ccc2ccccc2o1 [Coumarin] | 0
46 | C=C(C)C1CC=C(C=O)CC1 (stereo not drawn) [Perillaldehyde] | 0
47 | O=C1C=CC(=O)C=C1 [p-Benzoquinone] | 0

Same assay, conditions: true negative

Row | SMILES | Cys-DPRA binary classification: TN
48 | O=c1ccc2ccccc2o1 [Coumarin] | 1
49 | C=C(C)C1CC=C(C=O)CC1 (stereo not drawn) [Perillaldehyde] | 0
50 | O=C1C=CC(=O)C=C1 [p-Benzoquinone] | 0

Same assay, conditions: true positive

Row | SMILES | Cys-DPRA binary classification: TP
51 | O=c1ccc2ccccc2o1 [Coumarin] | 0
52 | C=C(C)C1CC=C(C=O)CC1 (stereo not drawn) [Perillaldehyde] | 1
53 | O=C1C=CC(=O)C=C1 [p-Benzoquinone] | 1

Tested on: not listed separately
Experiment: Microplate spectrophotometric method (DCYA assay), fluorescence end-point
Conditions: DCYA + test article + pH 10 buffer + resin

Row | SMILES | Fluorescence response, Reaction (R), average of 9 readings
54 | O=c1ccc2ccccc2o1 [Coumarin] | 1996.775 RFU

Same assay, conditions: RI = reactivity index; 2 equiv. electrophile, pH 10 buffer

Row | SMILES | DCYA 100-RI
55 | O=c1ccc2ccccc2o1 [Coumarin] | 97.2
56 | C=C(C)C1CC=C(C=O)CC1 (stereo not drawn) [Perillaldehyde] | 95.8
57 | O=C1C=CC(=O)C=C1 [p-Benzoquinone] | 34.5

Same assay, conditions: false negative

Row | SMILES | DCYA binary classification: FN
58 | O=c1ccc2ccccc2o1 [Coumarin] | 0
59 | C=C(C)C1CC=C(C=O)CC1 (stereo not drawn) [Perillaldehyde] | 1
60 | O=C1C=CC(=O)C=C1 [p-Benzoquinone] | 0

Same assay, conditions: false positive

Row | SMILES | DCYA binary classification: FP
61 | O=c1ccc2ccccc2o1 [Coumarin] | 0
62 | C=C(C)C1CC=C(C=O)CC1 (stereo not drawn) [Perillaldehyde] | 0
63 | O=C1C=CC(=O)C=C1 [p-Benzoquinone] | 0

Same assay, conditions: microplate spectrophotometric method

Row | SMILES | DCYA assay reactivity / classification in words
64 | O=C1C=CC(=O)C=C1 [p-Benzoquinone] | correctly identified as a sensitizer

Same assay, conditions: true negative

Row | SMILES | DCYA binary classification: TN
65 | O=c1ccc2ccccc2o1 [Coumarin] | 1
66 | C=C(C)C1CC=C(C=O)CC1 (stereo not drawn) [Perillaldehyde] | 0
67 | O=C1C=CC(=O)C=C1 [p-Benzoquinone] | 0

Same assay, conditions: true positive; positive if 100-RI <95

Row | SMILES | DCYA binary classification: TP
68 | O=c1ccc2ccccc2o1 [Coumarin] | 0
69 | C=C(C)C1CC=C(C=O)CC1 (stereo not drawn) [Perillaldehyde] | 0
70 | O=C1C=CC(=O)C=C1 [p-Benzoquinone] | 1
